Assay type in all cases: cell-based
Assay [1] has as its target T1, vanilloid receptor 1 (VR1/TRPV1) (Rattus norvegicus, UniProt O35433).
T1 construct: The vertebral column is removed from decapitated rats; from tissue; host or cells: primary cells from rat dorsal root ganglia (DRG)
The assay can be described thus: Functional FLIPR Ca2+ influx assay on vanilloid receptor 1, capsaicin stimulus (Pharmacological Method I). To be noted: for Ki: capsaicin stimulus.
Excerpt: The agonistic or antagonistic action of the substances to be investigated on the vanilloid receptor 1 (VR1/TRPV1) of the species rat can be determined using the following assay. According to this assay, the Ca^2+ influx through the receptor channel is quantified with the aid of a Ca^2+-sensitive dye (Type Fluo-4, Molecular Probes Europe BV, Leiden Netherlands) in a fluorescent imaging plate reader (FLIPR, Molecular Devices, Sunnyvale, USA).
The vertebral column is removed from decapitated rats and this is laid directly in a cold, i.e. ice bath-surrounded, HBSS buffer (Hank's buffered saline solution, Gibco Invitrogen GmbH, Karlsruhe, Germany) and 1% by volume of an AA solution (antibiotics/antimycotics solution, PAA, Pasching, Austria) is added. The vertebral column is cut in two longitudinally and the vertebral canal is removed together with fascias. Subsequently, the dorsal root ganglia (DRGs) are removed and in turn stored in cold HBSS buffer to which 1% by volume of an AA solution has been added. The DRGs completely freed from blood residues and spinal nerves are in each case transferred to 500 μL of cold collagenase Type 2 (PAA, Pasching, Austria) and incubated at 37° C. for 35 minutes. […] On completion of incubation, the enzyme solution is carefully pipetted off and 500 μL of complete medium are added to the DRGs in each case. The DRGs are in each case repeatedly suspended, drawn through No. 1, No. 12 and No. 16 needles by means of a syringe and transferred to 50 mL Falcon tubes and these are filled to 15 mL with complete medium. The contents of each Falcon tube are in each case filtered through a 70 μm Falcon filter insert and centrifuged at 1200 rpm and room temperature for 10 minutes. The resulting pellet is in each case taken up in 250 μL of complete medium and the cell count is determined.
The number of cells in the suspension is adjusted to 3×10^5 per mL and in each case 150 μL of this suspension are added to a well of the cell culture plates coated as described above.
The cells are then loaded with 2 μM Fluo-4 and 0.01% by volume of Pluronic F127 (Molecular Probes Europe BV, Leiden Netherlands) in HBSS buffer (Hank's buffered saline solution, Gibco Invitrogen GmbH, Karlsruhe, Germany) at 37° C. for 30 min, washed 3 times with HBSS buffer and, after a further incubation of 15 minutes at room temperature, employed in the FLIPR assay for Ca^2+ measurement. […] Quantification is carried out by measuring the highest fluorescence intensity (FC, fluorescence counts) over time.
Initially, the compounds to be tested (10 μM) are pipetted onto the cells and the Ca^2+ influx is compared with the control (capsaicin 10 μM). Information is gained therefrom in % activation relative to the Ca^2+ signal after addition of 10 μM of capsaicin (CP). After incubation for 5 minutes, 100 nM of capsaicin are applied and the influx of Ca^2+ is likewise determined.
Desensitizing agonists and antagonists lead to suppression of the Ca^2+ influx. The percentage inhibition is calculated in comparison with the maximum inhibition achieved with 10 μM of capsaicin.
Triplicate determinations (n=3) are carried out and these are repeated in at least 3 independent experiments (N=4).

For assay [2], the target named is T2, vanilloid receptor (VR1) (Homo sapiens, UniProt Q8NER1).
T2 construct: expressed in transfected cells; host or cells: CHO-K1 cells (ECACC), stably transfected
T2 sequence (Q8NER1 whole entry): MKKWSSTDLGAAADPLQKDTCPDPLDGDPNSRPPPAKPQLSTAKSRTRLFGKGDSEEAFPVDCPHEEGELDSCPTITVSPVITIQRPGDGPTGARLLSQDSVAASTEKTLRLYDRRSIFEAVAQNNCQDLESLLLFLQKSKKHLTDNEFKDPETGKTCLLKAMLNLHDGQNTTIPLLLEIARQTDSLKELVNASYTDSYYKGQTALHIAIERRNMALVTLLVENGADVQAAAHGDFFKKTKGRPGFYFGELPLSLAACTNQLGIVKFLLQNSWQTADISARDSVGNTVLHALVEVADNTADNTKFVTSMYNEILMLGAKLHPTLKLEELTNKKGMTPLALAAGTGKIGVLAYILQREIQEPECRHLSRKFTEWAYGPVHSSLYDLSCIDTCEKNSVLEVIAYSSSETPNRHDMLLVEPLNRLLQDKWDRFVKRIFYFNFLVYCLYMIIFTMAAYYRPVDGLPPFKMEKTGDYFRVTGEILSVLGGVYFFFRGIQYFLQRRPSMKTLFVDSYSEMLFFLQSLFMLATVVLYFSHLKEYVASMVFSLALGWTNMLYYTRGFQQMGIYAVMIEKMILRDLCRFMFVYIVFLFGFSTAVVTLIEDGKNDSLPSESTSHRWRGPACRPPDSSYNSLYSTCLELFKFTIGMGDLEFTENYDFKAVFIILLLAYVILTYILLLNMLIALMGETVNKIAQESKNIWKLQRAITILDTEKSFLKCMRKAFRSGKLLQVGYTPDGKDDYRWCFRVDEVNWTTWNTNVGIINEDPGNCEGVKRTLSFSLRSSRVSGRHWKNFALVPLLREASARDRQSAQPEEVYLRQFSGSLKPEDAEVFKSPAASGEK
The assay can be described thus: Functional FLIPR Ca2+ influx assay in CHO-K1 cells transfected with the VR1 gene, capsaicin stimulus (Pharmacological Method II). The note with it: read-out: inhibition (in percent), Human Capsaicin.

In assay [3] the target is T2, vanilloid receptor (VR1). The assay is described as above. The source says:
The agonistic or antagonistic action of the substances to be examined on the vanilloid receptor (VR1) can alternatively be determined by the following assay. According to this assay the Ca^2+ influx through the canal is quantified with the aid of a Ca^2+-sensitive dye (type Fluo-4, Molecular Probes, Europe BV, Leiden, Netherlands) in a fluorescent imaging plate reader (FLIPR, Molecular Devices, Sunnyvale, USA).
Chinese hamster ovary cells (CHO-K1 cells, European Collection of Cell Cultures (ECACC) UK) are stably transfected with the VR1 gene. For carrying out functional investigations, these cells are plated on poly-D-lysine-coated, black 96-well plates with a clear bottom (BD Biosciences, Heidelberg, Germany) in a density of 25,000 cells/well. The cells are incubated overnight at 37° C. and 5% CO2 in a culture medium (Nutrient Mixture ‘am’s F12, 10% by volume of FCS (fetal calf serum), 18 μg/ml of L-proline). On the following day the cells are incubated with Fluo-4 (Fluo-4 2 μM, Pluronic F127 0.01 by volume, Molecular Probes in HBSS (Hank's buffered saline solution), Gibco Invitrogen GmbH, Karlsruhe, Germany) for 30 minutes at 37° C. The plates are then washed 3 times with HBSS buffer and, after another incubation over a period of 15 minutes at room temperature, are used in the FLIPR for Ca^2+ measurement. The Ca^2+-dependent fluorescence is measured prior to and following the addition of the substances being examined (wavelength λex=488 nm, λem=540 nm). Quantification is carried out by measuring the highest fluorescence intensity (PC, fluorescence counts) over time.
The FLIPR protocol consists of 2 substance additions. First of all, the substances to be tested (10 μM) are pipetted onto the cells and the Ca^2+ influx is compared with the control (capsaicin 10 μM) (percentage activation based on the Ca^2+ signal following addition of 10 μM of capsaicin). Following incubation over a period of 5 minutes 100 nM of capsaicin are applied and the influx of Ca^2+ is likewise determined.
Desensitizing agonists and antagonists led to a suppression of the Ca^2+ influx. The percentage inhibition compared with the maximum attainable inhibition using 10 μM of capsaicin is calculated.
Based on the percentage displacement effected by different concentrations of the compounds of the general formula I to be tested, IC50 inhibition concentrations are calculated which cause 50 percent displacement of capsaicin. Conversion using the Cheng Prusoff equation gave Ki values for the test substances (Cheng, Prusoff; Bioch. Pharmacol. 22, 3099-3108, 1973).

For assay [4], the target named is vanilloid receptor 1 (VR1/TRPV1-Receptor) (Homo sapiens, UniProt Q8NER1). The assay can be described thus: VR1 functional assay following pH-stimulus.
Chain of vanilloid receptor 1 (VR1/TRPV1-Receptor) (Q8NER1 whole entry): as above
Setting [5] is: capsaicin, read-out: inhibition (in percent), Rat Capsaicin.
The mark [6] stands for this setting: read-out: inhibition (in percent), Human following pH-stimulus.

The structures appear in SMILES notation.

T1 sequence (O35433 whole entry): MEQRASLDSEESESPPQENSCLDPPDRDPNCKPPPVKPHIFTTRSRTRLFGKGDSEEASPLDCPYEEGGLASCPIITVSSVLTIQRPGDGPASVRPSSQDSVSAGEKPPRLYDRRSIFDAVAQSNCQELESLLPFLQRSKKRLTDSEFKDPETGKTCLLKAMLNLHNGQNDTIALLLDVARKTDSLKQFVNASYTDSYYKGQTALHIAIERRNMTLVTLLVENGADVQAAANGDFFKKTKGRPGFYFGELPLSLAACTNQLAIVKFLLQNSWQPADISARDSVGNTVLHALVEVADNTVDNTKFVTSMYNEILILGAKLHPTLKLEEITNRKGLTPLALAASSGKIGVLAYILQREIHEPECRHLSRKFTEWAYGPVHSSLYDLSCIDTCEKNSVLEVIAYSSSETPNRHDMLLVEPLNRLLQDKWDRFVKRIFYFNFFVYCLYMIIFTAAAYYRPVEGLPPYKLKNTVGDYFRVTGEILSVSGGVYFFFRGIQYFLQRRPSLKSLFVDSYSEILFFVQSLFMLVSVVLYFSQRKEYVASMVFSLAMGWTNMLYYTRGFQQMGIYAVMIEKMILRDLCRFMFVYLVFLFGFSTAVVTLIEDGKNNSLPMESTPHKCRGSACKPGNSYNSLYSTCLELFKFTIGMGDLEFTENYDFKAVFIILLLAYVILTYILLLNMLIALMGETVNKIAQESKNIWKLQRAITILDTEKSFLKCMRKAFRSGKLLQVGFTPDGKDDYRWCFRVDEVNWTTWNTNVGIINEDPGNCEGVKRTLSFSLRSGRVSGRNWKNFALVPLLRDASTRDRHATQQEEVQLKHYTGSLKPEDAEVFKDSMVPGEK

Usually Ki stands for a dissociation constant, usually derived from enzyme kinetics or from competition with a known ligand. By inhibition is commonly meant how much of the control response was suppressed. Regarding `Cc1ccc(CC(C(=O)NCc2ccc(C(F)(F)F)nc2N2CCC(C)CC2)c2ccc(NS(C)(=O)=O)c(F)c2)cc1` (stereo not shown) [Example 77, 2-(3-Fluoro-4-(methylsulfonamido)phenyl)-N-((2-(4-methylpiperidin-1-yl)-6-(trifluoromethyl)pyridin-3-yl)methyl)-3-p-tolylpropanamide], in assay [1], the Ki is 158 nM. Also, at vanilloid receptor (VR1) [2], the inhibition at 1 µM was found to be 0% and the inhibition at 5 µM turned out to be 17%.
Consider `CS(=O)(=O)Nc1ccc(C2(C(=O)NCc3ccc(C(F)(F)F)nc3SC3CCCCC3)CCCCC2)cc1F` [Example 16, N-((2-(Cyclohexylthio)-6-(trifluoromethyl)pyridin-3-yl)methyl)-1-(3-fluoro-4-(methylsulfonamido)phenyl)cyclohexanecarboxamide], for which, in assay [1] (setting [5]), the inhibition at 1 µM is 15% and the inhibition at 5 µM stood at 69%.
The IC50 is the concentration that inhibits the measured activity by half. Low values mean inhibition by little substance, high ones a need for much substance. In the case of `CC1CCN(c2nc(C(F)(F)F)ccc2CNC(=O)C(c2ccc(NS(C)(=O)=O)c(F)c2)C2CCCC2)CC1` (stereo not shown) [Example 21, 2-Cyclopentyl-2-(3-fluoro-4-(methylsulfonamido)phenyl)-N-((2-(4-methylpiperidin-1-yl)-6-(trifluoromethyl)pyridin-3-yl)methyl)acetamide], the Ki in assay [1] amounted to 20.6 nM; at vanilloid receptor (VR1) [3], 88.7 nM. This compound also gave an IC50 in assay [4] of 949 nM.
On to `Cc1ccc(C(C(=O)NCc2ccc(C(F)(F)F)nc2N2CCC(C)CC2)c2ccc(NS(C)(=O)=O)c(F)c2)cc1` (stereo not shown) [Example 42, 2-(3-Fluoro-4-(methylsulfonamido)phenyl)-N-((2-(4-methylpiperidin-1-yl)-6-(trifluoromethyl)pyridin-3-yl)methyl)-2-p-tolylacetamide], for which the Ki in assay [1] stood at 6.3 nM; on vanilloid receptor (VR1) [3] it was 1.1 nM. This compound also showed an IC50 in assay [4] of 31.6 nM.
For `Cc1cccc(C(C(=O)NCc2ccc(C(F)(F)F)nc2N2CCC(C)CC2)c2ccc(NS(C)(=O)=O)c(F)c2)c1` (stereo not shown) [Example 41, 2-(3-Fluoro-4-(methylsulfonamido)phenyl)-N-((2-(4-methylpiperidin-1-yl)-6-(trifluoromethyl)pyridin-3-yl)methyl)-2-m-tolylacetamide] the same measures were 1.8 nM, 0.1 nM and 86.7 nM.
Consider `Cc1ccccc1C(C(=O)NCc1ccc(C(F)(F)F)nc1N1CCC(C)CC1)c1ccc(NS(C)(=O)=O)c(F)c1` (stereo not shown) [Example 40, 2-(3-Fluoro-4-(methylsulfonamido)phenyl)-N-((2-(4-methylpiperidin-1-yl)-6-(trifluoromethyl)pyridin-3-yl)methyl)-2-o-tolylacetamide], for which the figures for the Ki (in assay [1]; at vanilloid receptor (VR1) [3]) were 109 nM and 42.9 nM, respectively. In assay [4], the midpoint of inhibition, the IC50, lay at 3140 nM.
Turning to `CS(=O)(=O)Nc1ccc(C(C(=O)NCc2ccc(C(F)(F)F)nc2SC2CCCCC2)c2ccccc2)cc1F` (stereo not shown) [Example 4, N-((2-(Cyclohexylthio)-6-(trifluoromethyl)pyridin-3-yl)methyl)-2-(3-fluoro-4-(methylsulfonamido)phenyl)-2-phenylacetamide], the Ki on vanilloid receptor (VR1) [3] stood at 62.5 nM. The compound also showed an IC50 in assay [4] of 1590 nM.
In turn, `CC1CCN(c2nc(C(F)(F)F)ccc2CNC(=O)C(c2cccc(F)c2)c2ccc(NS(C)(=O)=O)c(F)c2)CC1` (stereo not shown) [Example 34, 2-(3-Fluoro-4-(methylsulfonamido)phenyl)-2-(3-fluorophenyl)-N-((2-(4-methylpiperidin-1-yl)-6-(trifluoromethyl)pyridin-3-yl)methyl)acetamide] came in with a Ki on vanilloid receptor (VR1) [3] of 2.4 nM. The compound also showed an IC50 in assay [4] of 21.6 nM.
As for `CC1CCN(c2nc(C(F)(F)F)ccc2CNC(=O)C2(c3ccc(NS(C)(=O)=O)c(F)c3)CCCC2)CC1` [Example 13, 1-(3-Fluoro-4-(methylsulfonamido)phenyl)-N-((2-(4-methylpiperidin-1-yl)-6-(trifluoromethyl)pyridin-3-yl)methyl)cyclopentanecarboxamide], in assay [1] (@ 0.1 μM, capsaicin, read-out: inhibition (in percent), Rat Capsaicin), the inhibition at 0.1 µM stood at 0%. Besides, in assay [1] (setting [5]), the inhibition at 1 µM came to 27% and the inhibition at 5 µM stood at 43%. At vanilloid receptor (VR1) [2], the inhibition at 1 µM was 0% and the inhibition at 5 µM stood at 25%.
Regarding `CS(=O)(=O)Nc1ccc(C(C(=O)NCc2ccc(C(F)(F)F)nc2SC2CCCCC2)C2CCCC2)cc1F` (stereo not shown) [Example 22, N-((2-(Cyclohexylthio)-6-(trifluoromethyl)pyridin-3-yl)methyl)-2-cyclopentyl-2-(3-fluoro-4-(methylsulfonamido)phenyl)acetamide], affinity in assay [1] was put at a Ki of 31.3 nM. The compound further registered a Ki on vanilloid receptor (VR1) [3] of 103 nM. Moreover, in assay [4] (setting [6]), the inhibition at 1 µM came to 0%, the inhibition at 5 µM turned out to be 27% and the inhibition at 10 µM is 46%.
`CC(C)(C(=O)NCc1ccc(C(F)(F)F)nc1SC1CCCCC1)c1ccc(NS(C)(=O)=O)c(F)c1` [Example 6, N-((2-(Cyclohexylthio)-6-(trifluoromethyl)pyridin-3-yl)methyl)-2-(3-fluoro-4-(methylsulfonamido)phenyl)-2-methylpropanamide] had an inhibitory constant (Ki) in assay [1] of 34.9 nM. In addition, the inhibition constant Ki on vanilloid receptor (VR1) [3] turned out to be 65.7 nM. Besides, in assay [4] (@ 0.1 μM, read-out: inhibition (in percent), Human following pH-stimulus), the inhibition at 0.1 µM came out at 4%. Also, in assay [4] (setting [6]), the inhibition at 1 µM was determined as 20%, the inhibition at 5 µM stood at 42% and the inhibition at 10 µM amounted to 54%.
For the compound `CC1CCN(c2nc(C(F)(F)F)ccc2CNC(=O)C(c2ccc(F)cc2)c2ccc(NS(C)(=O)=O)c(F)c2)CC1` (stereo not shown) [Example 35, 2-(3-Fluoro-4-(methylsulfonamido)phenyl)-2-(4-fluorophenyl)-N-((2-(4-methylpiperidin-1-yl)-6-(trifluoromethyl)pyridin-3-yl)methyl)acetamide], the Ki in assay [1] worked out at 13.6 nM; at vanilloid receptor (VR1) [3] it was 3.4 nM. Moreover, in assay [4], half-maximal inhibition (IC50) was put at 246 nM.
`CC1CCN(c2nc(C(F)(F)F)ccc2CNC(=O)C(c2ccc(NS(C)(=O)=O)c(F)c2)C2CCCCC2)CC1` (stereo not shown) [Example 1, 2-Cyclohexyl-2-(3-fluoro-4-(methylsulfonamido)phenyl)-N-((2-(4-methylpiperidin-1-yl)-6-(trifluoromethyl)pyridin-3-yl)methyl)acetamide]: at vanilloid receptor (VR1) [3], the affinity, expressed as Ki, was 31.1 nM. Further, it took 118 nM to reach half-maximal inhibition in assay [4] (IC50).
For the compound `CC1CCN(c2nc(C(F)(F)F)ccc2CNC(=O)C(c2ccccc2)c2ccc(NS(C)(=O)=O)c(F)c2)CC1` (stereo not shown) [Example 3, 2-(3-Fluoro-4-(methylsulfonamido)phenyl)-N-((2-(4-methylpiperidin-1-yl)-6-(trifluoromethyl)pyridin-3-yl)methyl)-2-phenylacetamide], the Ki at vanilloid receptor (VR1) [3] was 1.3 nM. The same compound had an IC50 in assay [4] of 79 nM.
As for `CC1CCN(c2nc(C(F)(F)F)ccc2CNC(=O)C(C)(C)c2ccc(NS(C)(=O)=O)c(F)c2)CC1` [Example 5, 2-(3-Fluoro-4-(methylsulfonamido)phenyl)-2-methyl-N-((2-(4-methylpiperidin-1-yl)-6-(trifluoromethyl)pyridin-3-yl)methyl)propanamide], the Ki in assay [1] was found to be 45.5 nM; at vanilloid receptor (VR1) [3], 49 nM. The compound further yielded an IC50 in assay [4] of 886 nM.
In assay [1], `CCC(C)(C(=O)NCc1ccc(C(F)(F)F)nc1N1CCC(C)CC1)c1ccc(NS(C)(=O)=O)c(F)c1` (stereo not shown) [Example 7, 2-(3-Fluoro-4-(methylsulfonamido)phenyl)-2-methyl-N-((2-(4-methylpiperidin-1-yl)-6-(trifluoromethyl)pyridin-3-yl)methyl)butanamide] returned a Ki of 37.8 nM. The compound further showed a Ki at vanilloid receptor (VR1) [3] of 124 nM. For the same compound, in assay [4] (setting [6]), the inhibition at 1 µM turned out to be 0%, the inhibition at 5 µM worked out at 15% and the inhibition at 10 µM is 18%.

For the origin of these results see patent publication US8735426B2, “Vanilloid receptor ligands, pharmaceutical compositions containing them, process for making them and use thereof for treating pain and other conditions” (Gruenenthal GmbH, priority 2007, dated 2014).
